In the supplement of paper PMC10307832:

How the values were obtained:
Experiment in all cases: relative viability (nuclei count vs DMSO), 5 days (fraction); higher = more cells survive
[1] = compound: C1CC(C1)(C(=O)O)C(=O)O.[NH2-].[NH2-].[Pt+2] [Carboplatin] + CC(=O)c1c(C)c2cnc(Nc3ccc(N4CCNCC4)cn3)nc2n(C2CCCC2)c1=O [Palbociclib] (partner 0.5 µM)
Procedure, shortened: (§1)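 Relative viability was taken as the ratio of nuclei in treated wells to nuclei in vehicle wells. Lung cancer cell lines in 1536-well plates received compounds by pin tool one day after seeding, either one drug alone or a fixed anchor-drug dose plus five library-drug doses (not always all listed) in √10 steps. Nuclei were counted on 4× images after 5 days of treatment, and values are medians of duplicate plates.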

[2] = compound: C1CC(C1)(C(=O)O)C(=O)O.[NH2-].[NH2-].[Pt+2] [Carboplatin] + N=C(N)NC(=N)NCCc1ccccc1 [Phenformin] (partner 250 µM)
Procedure, shortened: as §1

[3] = compound: CC[C@H](C)N1C=C(C2=C(C=C(C=C21)C3=CN=C(C=C3)N4CCNCC4)C(=O)NCC5=C(C=C(NC5=O)C)C)C [GSK126] + C[C@@H](Oc1cc(-c2cnn(C3CCNCC3)c2)cnc1N)c1c(Cl)ccc(F)c1Cl [Crizotinib] (partner 1 µM)
Procedure, shortened: as §1

[4] = compound: NS(=O)(=O)OC[C@@H]1C[C@@H](n2ccc3c(N[C@H]4CCc5ccccc54)ncnc32)C[C@@H]1O [MLN4924] + CC(C)C[C@H](NC(=O)[C@H](Cc1ccccc1)NC(=O)c1cnccn1)B(O)O [Bortezomib] (partner 0.002 µM)
Procedure, shortened: as §1

## NCI-H522
[1]; first compound 0.08 µM
  relative viability: 0.897
[1]; first compound 0.253 µM
  relative viability: 1.35
[1]; first compound 0.8 µM
  relative viability: 1
[1]; first compound 2.53 µM
  relative viability: 0.965
[1]; first compound 8 µM
  relative viability: 0.825
[2]; first compound 0.08 µM
  relative viability: 0.516
[2]; first compound 0.253 µM
  relative viability: 0.679
[2]; first compound 0.8 µM
  relative viability: 0.648
[2]; first compound 2.53 µM
  relative viability: 0.686
[2]; first compound 8 µM
  relative viability: 0.64

## Calu-6
[3]; first compound 0.08 µM
  relative viability: 0.906
[3]; first compound 0.253 µM
  relative viability: 0.749
[3]; first compound 0.8 µM
  relative viability: 0.806
[3]; first compound 2.53 µM
  relative viability: 0.844
[3]; first compound 8 µM
  relative viability: 0.759
[4]; first compound 0.04 µM
  relative viability: 1
[4]; first compound 0.1265 µM
  relative viability: 0.557
[4]; first compound 0.4 µM
  relative viability: 0.219
[4]; first compound 1.265 µM
  relative viability: 0.152
[4]; first compound 4 µM
  relative viability: 0.158

## LK-2
[1]; first compound 0.08 µM
  relative viability: 0.619
[1]; first compound 0.253 µM
  relative viability: 0.824
[1]; first compound 0.8 µM
  relative viability: 0.796
[1]; first compound 2.53 µM
  relative viability: 0.789
[1]; first compound 8 µM
  relative viability: 0.658
[3]; first compound 0.08 µM
  relative viability: 0.282
[3]; first compound 0.253 µM
  relative viability: 0.224
[3]; first compound 0.8 µM
  relative viability: 0.243
[3]; first compound 2.53 µM
  relative viability: 0.252
[3]; first compound 8 µM
  relative viability: 0.206
[2]; first compound 0.08 µM
  relative viability: 0.683
[2]; first compound 0.253 µM
  relative viability: 0.47
[2]; first compound 0.8 µM
  relative viability: 0.343
[2]; first compound 2.53 µM
  relative viability: 0.398
[2]; first compound 8 µM
  relative viability: 0.563

## IA-LM
[3]; first compound 0.08 µM
  relative viability: 0.831
[3]; first compound 0.253 µM
  relative viability: 1.12
[3]; first compound 0.8 µM
  relative viability: 0.79
[3]; first compound 2.53 µM
  relative viability: 0.729
[3]; first compound 8 µM
  relative viability: 0.947
[4]; first compound 0.04 µM
  relative viability: 0.381
[4]; first compound 0.1265 µM
  relative viability: 0.202
[4]; first compound 0.4 µM
  relative viability: 0.0828
[4]; first compound 1.265 µM
  relative viability: 0.0567
[4]; first compound 4 µM
  relative viability: 0.0708

## NCI-H1944
[1]; first compound 0.08 µM
  relative viability: 0.335
[1]; first compound 0.253 µM
  relative viability: 0.359
[1]; first compound 0.8 µM
  relative viability: 0.332
[1]; first compound 2.53 µM
  relative viability: 0.332
[1]; first compound 8 µM
  relative viability: 0.272
[3]; first compound 0.08 µM
  relative viability: 1.3
[3]; first compound 0.253 µM
  relative viability: 1.08
[3]; first compound 0.8 µM
  relative viability: 1.1
[3]; first compound 2.53 µM
  relative viability: 1.05
[3]; first compound 8 µM
  relative viability: 1.23
[2]; first compound 0.08 µM
  relative viability: 0.217
[2]; first compound 0.253 µM
  relative viability: 0.193
[2]; first compound 0.8 µM
  relative viability: 0.186
[2]; first compound 2.53 µM
  relative viability: 0.181
[2]; first compound 8 µM
  relative viability: 0.181

## EBC-1
[3]; first compound 0.08 µM
  relative viability: 0.204
[3]; first compound 0.253 µM
  relative viability: 0.203
[3]; first compound 0.8 µM
  relative viability: 0.182
[3]; first compound 2.53 µM
  relative viability: 0.193
[3]; first compound 8 µM
  relative viability: 0.173
[4]; first compound 0.04 µM
  relative viability: 0.403
[4]; first compound 0.1265 µM
  relative viability: 0.269
[4]; first compound 0.4 µM
  relative viability: 0.17
[4]; first compound 1.265 µM
  relative viability: 0.117
[4]; first compound 4 µM
  relative viability: 0.142

## NCI-H2170
[1]; first compound 0.08 µM
  relative viability: 0.39
[1]; first compound 0.253 µM
  relative viability: 0.411
[1]; first compound 0.8 µM
  relative viability: 0.384
[1]; first compound 2.53 µM
  relative viability: 0.379
[1]; first compound 8 µM
  relative viability: 0.342
[3]; first compound 0.08 µM
  relative viability: 1.32
[3]; first compound 0.253 µM
  relative viability: 1.15
[3]; first compound 0.8 µM
  relative viability: 1.16
[3]; first compound 2.53 µM
  relative viability: 1.09
[3]; first compound 8 µM
  relative viability: 1.23
[2]; first compound 0.08 µM
  relative viability: 0.429
[2]; first compound 0.253 µM
  relative viability: 0.446
[2]; first compound 0.8 µM
  relative viability: 0.402
[2]; first compound 2.53 µM
  relative viability: 0.38
[2]; first compound 8 µM
  relative viability: 0.41

## SW 900
[1]; first compound 0.08 µM
  relative viability: 0.548
[1]; first compound 0.253 µM
  relative viability: 0.622
[1]; first compound 0.8 µM
  relative viability: 0.572
[1]; first compound 2.53 µM
  relative viability: 0.393
[1]; first compound 8 µM
  relative viability: 0.505
[2]; first compound 0.08 µM
  relative viability: 0.713
[2]; first compound 0.253 µM
  relative viability: 0.561
[2]; first compound 0.8 µM
  relative viability: 0.608
[2]; first compound 2.53 µM
  relative viability: 0.431
[2]; first compound 8 µM
  relative viability: 0.414

## NCI-H1703
[3]; first compound 0.08 µM
  relative viability: 0.806
[3]; first compound 0.253 µM
  relative viability: 0.313
[3]; first compound 0.8 µM
  relative viability: 0.42
[3]; first compound 2.53 µM
  relative viability: 0.592
[3]; first compound 8 µM
  relative viability: 0.583
[4]; first compound 0.04 µM
  relative viability: 0.117
[4]; first compound 0.1265 µM
  relative viability: 0.0992
[4]; first compound 0.4 µM
  relative viability: 0.138
[4]; first compound 1.265 µM
  relative viability: 0.111
[4]; first compound 4 µM
  relative viability: 0.123

## NCI-H1395
[1]; first compound 0.08 µM
  relative viability: 0.703
[1]; first compound 0.253 µM
  relative viability: 0.679
[1]; first compound 0.8 µM
  relative viability: 0.547
[1]; first compound 2.53 µM
  relative viability: 0.487
[1]; first compound 8 µM
  relative viability: 0.535
[2]; first compound 0.08 µM
  relative viability: 0.476
[2]; first compound 0.253 µM
  relative viability: 0.446
[2]; first compound 0.8 µM
  relative viability: 0.497
[2]; first compound 2.53 µM
  relative viability: 0.379
[2]; first compound 8 µM
  relative viability: 0.402

## NCI-H1563
[3]; first compound 0.08 µM
  relative viability: 0.922
[3]; first compound 0.253 µM
  relative viability: 0.755
[3]; first compound 0.8 µM
  relative viability: 0.848
[3]; first compound 2.53 µM
  relative viability: 0.78
[3]; first compound 8 µM
  relative viability: 0.718
[2]; first compound 0.08 µM
  relative viability: 0.691
[2]; first compound 0.253 µM
  relative viability: 0.668
[2]; first compound 0.8 µM
  relative viability: 0.672
[2]; first compound 2.53 µM
  relative viability: 0.7
[2]; first compound 8 µM
  relative viability: 0.631
[4]; first compound 0.04 µM
  relative viability: 1.35
[4]; first compound 0.1265 µM
  relative viability: 1.03
[4]; first compound 0.4 µM
  relative viability: 0.617
[4]; first compound 1.265 µM
  relative viability: 0.474
[4]; first compound 4 µM
  relative viability: 0.59

## NCI-H1793
[1]; first compound 0.08 µM
  relative viability: 0.364
[1]; first compound 0.253 µM
  relative viability: 0.365
[1]; first compound 0.8 µM
  relative viability: 0.31
[1]; first compound 2.53 µM
  relative viability: 0.325
[1]; first compound 8 µM
  relative viability: 0.365
[2]; first compound 0.08 µM
  relative viability: 0.444
[2]; first compound 0.253 µM
  relative viability: 0.496
[2]; first compound 0.8 µM
  relative viability: 0.289
[2]; first compound 2.53 µM
  relative viability: 0.35
[2]; first compound 8 µM
  relative viability: 0.405

## NCI-H1623
[2]; first compound 0.08 µM
  relative viability: 0.586
[2]; first compound 0.253 µM
  relative viability: 0.609
[2]; first compound 0.8 µM
  relative viability: 0.586
[2]; first compound 2.53 µM
  relative viability: 0.534
[2]; first compound 8 µM
  relative viability: 0.513
